Reference: publication PMC3530156 (Chemistry & biology, 2012)

Legend:
[1] = test system: B. subtilis BSZ-9 (L11 knockout); details: colonies of M1152 + pSETGE1 overlaid with B. subtilis BSZ-9, resistant to 26-membered thiopeptides
Bacillus subtilis PY79 = assay: MIC, overnight culture/serial dilution assay; assay type: cell-based; details: overnight serial dilution culture, purified compound

Substance: GE37468
- resistance of overlaid strain [1]: Neither BSZ-9 nor B. cereus ATCC 15479 exhibited resistance
- MIC B. subtilis (Bacillus subtilis PY79): 0.016 µg/mL
